According to publication PMC12490008 (Environmental Science & Technology, 2025):
*1 amine or outer side, *2 acyl side, *3 side chain or, on linkers, in order; H or OH if unused. Where a SMILES comes first, the peptide text is derived from it. Bridges are numbered along the chain shown (N, C = ends). [ ]: non-standard residue; d: D form. Adda = CO[C@@H](Cc1ccccc1)[C@@H](C)/C=C(C)/C=C/[C@H](N[*:1])[C@H](C)C(=O)[*:2]; dAsp(3S-Me) = C[C@H](C(=O)[*:3])[C@@H](N[*:1])C(=O)[*:2]; d(γGlu) = O=C(O)[C@@H](CCC(=O)[*:2])N[*:1]; Abu = CC[C@H](N)C(=O)O; NMeDha = C=C(NC)C(=O)O

How the values were obtained:
[1] = tested on: River Chriesbach river water
[2] = tested on: River Chriesbach biofilm suspension
[3] = tested on: River Chriesbach biofilm suspension (100%, 10%, 1%)
[4] = tested on: River Chriesbach biofilm suspension (100%)
[5] = tested on: River Chriesbach biofilm suspensions
[6] = tested on: lake Greifensee water and three rivers
[7] = tested on: River Mönschaltorfer Aa biofilm suspension
[8] = tested on: River Glatt biofilm suspension

## C=C1C(=O)N[C@H](C)C(=O)N[C@@H](CC(C)C)C(=O)N[C@@H](C(=O)O)[C@H](C)C(=O)N[C@@H](CC)C(=O)N[C@@H](/C=C/C(C)=C/[C@H](C)[C@H](Cc2ccccc2)OC)[C@H](C)C(=O)N[C@@H](C(=O)O)CCC(=O)N1C [MC-LAba] ([Abu][Adda][d(γGlu)][NMeDha][dA]L[dAsp(3S-Me)]-OH; lactam N-7)
[1]
  1d removal, River water: -11%
  Half-lives (h), River water: n.d.(decay)
[2]
  removal within 3 days: < 13%
[3]
  1d removal, 1% biofilm: -6%
  1d removal, 10% biofilm: 13%
  1d removal, 100% biofilm: -8%
  Half-lives (h), 1% biofilm: n.d.(decay)
  Half-lives (h), 10% biofilm: n.d.(decay)
  Half-lives (h), 100% biofilm: n.d.(decay)
[4]
  1.3d removal, 2% metabolite: -7%
  1.3d removal, 10% metabolite: -2%
  1.3d removal, 100% metabolite: 8%
  Half-lives (h), 100% metabolite: n.d. (decay)
[5]
  biodegradability in biofilm suspensions (in words): remained rather stable

## O=C(O)c1ccccc1 [benzoic acid, reference compound]
[2]
  removal of benzoic acid after 8 h: 72%
  removal of benzoic acid after 24 h: 100%
[6]
  biotransformation during incubation in surface waters: degraded within hours
[3]
  removal of benzoic acid after 1 day, 1% density: 62%
  removal of benzoic acid after 1 day, 10% density: 77%
  removal of benzoic acid after 1 day, 100% density: 97%
[7]
  removal of benzoic acid after 8 h: 41%
  removal of benzoic acid after 24 h: 84%
[4]
  removal of benzoic acid within 4 h: 94-100%
[8]
  removal of benzoic acid after 8 h: 3%
  removal of benzoic acid after 24 h: 75%

## [D-Asp3]MC‐(H4)YR [[D-Asp3]MC-(H4)YR]
[1]
  1d removal, River water: -24%
  Lag-time (h), River water: 168.0 h
  degradation in ambient river water: detectable degradation
  half-life, river water: 170 h
[2]
  removal within 3 days: 86%
[3]
  1d removal, 1% biofilm: 6%
  1d removal, 10% biofilm: 31%
  1d removal, 100% biofilm: 94%
  Half-lives (h), 100% biofilm: 7.6 h
  Lag-time (h), 1% biofilm: 108.8 h
  Lag-time (h), 10% biofilm: 56.4 h
  Lag-time (h), 100% biofilm: 5.8 h
  half-life, 1% biofilm: 120 h
  half-life, 10% biofilm: 62.4 h
[4]
  1.3d removal, 2% metabolite: 100%
  1.3d removal, 10% metabolite: 100%
  1.3d removal, 100% metabolite: 94%
  Half-lives (h), 100% metabolite: 11.0 h
  Lag-time (h), 100% metabolite: 1.1 h
[5]
  biodegradability in biofilm suspensions (in words): biodegradable
